# Patent publication US11731964B2, “Benzamide antibacterial agents” (Purdue Research Foundation, priority 2018, dated 2023)
# How the values were obtained:
# VISA NRS1 = experiment: MIC and MBC; assay type: cell-based, S. aureus; conditions: Staphylococcus aureus, VISA NRS1
# Method: (§1) Bacteria were cultured in cation-adjusted Mueller Hinton Broth (for strains in Tables 1 and 4) or Brain Heart Infusion broth (for Enterococcus faecium) or Tryptic Soy Broth (all other bacteria) in a 96-well plate at 37° C. for at least 20 hours. The MIC was classified as the lowest concentration where no visual growth of bacteria was observed. The minimum bactericidal concentration (MBC) was tested by spotting 4 μL from wells with no growth onto Tryptic Soy Agar (TSA) plates. Plates were incubated at 37° C. for at least 18 hours before recording the MBC.
# VRSA VRS12 = experiment: MIC and MBC; assay type: cell-based, S. aureus; conditions: Staphylococcus aureus, VRSA VRS12
# Method: as §1
# E. faecium ATCC = experiment: MIC and MBC; assay type: cell-based; conditions: Enterococcus faecium, E. faecium ATCC
# How it was run: (§2)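 Visual read-out: the minimum inhibitory concentration is the lowest concentration lacking bacterial growth following incubation of ≥20 h at 37° C. Media varied by organism (CA-MHB, TSB, or BHI for E. faecium). Bactericidal concentration came from subculturing clear wells onto Tryptic Soy Agar for ≥18 h.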
# MRSA NRS123 (USA400) = experiment: MIC and MBC; assay type: cell-based; conditions: Staphylococcus aureus, MRSA NRS123 (USA400)
# How it was run: as §2
# MRSA NRS384 (USA300) = experiment: MIC and MBC; assay type: cell-based; conditions: Staphylococcus aureus, MRSA NRS384 (USA300)
# How it was run: as §2
# MRSA NRS386 (USA700) = experiment: MIC and MBC; assay type: cell-based; conditions: Staphylococcus aureus, MRSA NRS386 (USA700)
# How it was run: as §2
# [1] = test system: Escherichia coli JW5503-1 (ΔtolC); experiment: MIC against Gram-negative pathogens (efflux pump knockout); assay type: cell-based
# Method: as §1
compound,measurement,setting,value
CC1CC(C)CN(S(=O)(=O)c2ccc(C(=O)Nc3nnc(-c4cccs4)o3)cc2)C1 (stereo not shown) [Compound F6],MBC,VISA NRS1; read-out: MBC,> 128 µg/mL
same,MIC,VISA NRS1; read-out: MIC,2 µg/mL
same,MBC,VRSA VRS12; read-out: MBC,> 128 µg/mL
same,MIC,VRSA VRS12; read-out: MIC,2 µg/mL
same,MBC,E. faecium ATCC; read-out: MBC,128 µg/mL
same,MIC,E. faecium ATCC; read-out: MIC,2 µg/mL
same,MBC,MRSA NRS123 (USA400); read-out: MBC,> 128 µg/mL
same,MIC,MRSA NRS123 (USA400); read-out: MIC,2 µg/mL
same,MBC,MRSA NRS384 (USA300); read-out: MBC,> 128 µg/mL
same,MIC,MRSA NRS384 (USA300); read-out: MIC,2 µg/mL
same,MBC,MRSA NRS386 (USA700); read-out: MBC,> 128 µg/mL
same,MIC,MRSA NRS386 (USA700); read-out: MIC,2 µg/mL
same,MIC,[1],2 µg/mL
